In the NIST ThermoML archive (doi:10.1021/acs.jced.8b00554):

Assay: xn = mol fraction of the nth substance listed
Conditions: Liquid, Vibrating tube method

CCCCCCCC [octane] + CCCO
mass density [kg/m3]
Conditions	353.15 K	363.15 K
100 kPa, x2 = 0.1631	–	643.75
100 kPa, x2 = 0.2111	–	645.23
100 kPa, x2 = 0.3158	–	649.43
100 kPa, x2 = 0.4411	–	656.74
100 kPa, x2 = 0.7301	–	685.03
100 kPa, x2 = 0.8823	–	711.1
1000 kPa, x2 = 0.2111	–	646.4
1010 kPa, x2 = 0.1631	–	644.92
1010 kPa, x2 = 0.3158	–	650.63
1020 kPa, x2 = 0.4411	–	658.07
1020 kPa, x2 = 0.7301	–	686.21
1020 kPa, x2 = 0.8823	–	712.01
2000 kPa, x2 = 0.3158	–	652.01
2000 kPa, x2 = 0.4411	–	659.42
2000 kPa, x2 = 0.7301	–	687.5
2000 kPa, x2 = 0.8823	–	713.23
2010 kPa, x2 = 0.1631	–	646.32
2010 kPa, x2 = 0.2111	–	647.77
3000 kPa, x2 = 0.1631	–	647.65
3010 kPa, x2 = 0.3158	–	653.38
3010 kPa, x2 = 0.4411	–	660.78
3010 kPa, x2 = 0.8823	–	714.49
3020 kPa, x2 = 0.2111	–	649.11
3020 kPa, x2 = 0.7301	–	688.81
4010 kPa, x2 = 0.2111	–	650.5
4010 kPa, x2 = 0.3158	–	654.7
4010 kPa, x2 = 0.4411	–	662.14
4010 kPa, x2 = 0.8823	–	715.75
4020 kPa, x2 = 0.1631	–	649
4020 kPa, x2 = 0.7301	–	690.17
5000 kPa, x2 = 0.2111	–	651.8
5000 kPa, x2 = 0.3158	–	656.03
5000 kPa, x2 = 0.7301	–	691.49
5010 kPa, x2 = 0.1631	–	650.29
5010 kPa, x2 = 0.8823	–	716.99
5020 kPa, x2 = 0.4411	–	663.46
6000 kPa, x2 = 0.8823	–	718.21
6010 kPa, x2 = 0.1631	–	651.6
6010 kPa, x2 = 0.2111	–	653.06
6020 kPa, x2 = 0.3158	–	657.34
6020 kPa, x2 = 0.4411	–	664.8
6020 kPa, x2 = 0.7301	–	692.76
7000 kPa, x2 = 0.1631	–	652.93
7000 kPa, x2 = 0.3158	–	658.67
7000 kPa, x2 = 0.4411	–	666.13
7010 kPa, x2 = 0.2111	–	654.35
7020 kPa, x2 = 0.7301	–	694.08
7020 kPa, x2 = 0.8823	–	719.45
8000 kPa, x2 = 0.3158	–	660
8010 kPa, x2 = 0.1631	–	654.22
8010 kPa, x2 = 0.2111	–	655.68
8010 kPa, x2 = 0.8823	–	720.66
8020 kPa, x2 = 0.4411	–	667.45
8020 kPa, x2 = 0.7301	–	695.38
9000 kPa, x2 = 0.1631	–	655.49
9000 kPa, x2 = 0.8823	–	721.91
9010 kPa, x2 = 0.3158	–	661.3
9010 kPa, x2 = 0.4411	–	668.75
9010 kPa, x2 = 0.7301	–	696.66
9020 kPa, x2 = 0.2111	–	656.97
10000 kPa, x2 = 0.1631	–	656.77
10000 kPa, x2 = 0.4411	–	670.08
10010 kPa, x2 = 0.2111	–	658.25
10010 kPa, x2 = 0.3158	674.1	–
10010 kPa, x2 = 0.4411	682.1	–
10010 kPa, x2 = 0.7301	710.33	–
10010 kPa, x2 = 0.8823	–	723.12
10020 kPa, x2 = 0.3158	–	662.62
10020 kPa, x2 = 0.7301	–	697.93
11000 kPa, x2 = 0.1631	668.3	658.05
11000 kPa, x2 = 0.4411	–	671.35
11000 kPa, x2 = 0.7301	711.46	–
11000 kPa, x2 = 0.8823	735.72	–
11010 kPa, x2 = 0.2111	–	659.52
11010 kPa, x2 = 0.3158	–	663.89
11010 kPa, x2 = 0.4411	683.25	–
11010 kPa, x2 = 0.7301	–	699.17
11020 kPa, x2 = 0.2111	670.17	–
11020 kPa, x2 = 0.3158	675.25	–
11020 kPa, x2 = 0.8823	–	724.31
12000 kPa, x2 = 0.1631	–	659.27
12000 kPa, x2 = 0.2111	671.35	–
12000 kPa, x2 = 0.3158	676.4	–
12000 kPa, x2 = 0.4411	684.41	–
12000 kPa, x2 = 0.7301	712.61	–
12000 kPa, x2 = 0.8823	–	725.46
12010 kPa, x2 = 0.1631	669.46	–
12010 kPa, x2 = 0.2111	–	660.8
12010 kPa, x2 = 0.3158	–	665.14
12020 kPa, x2 = 0.4411	–	672.6
12020 kPa, x2 = 0.7301	–	700.4
12020 kPa, x2 = 0.8823	736.81	–
13000 kPa, x2 = 0.3158	677.55	666.41
13000 kPa, x2 = 0.4411	–	673.84
13000 kPa, x2 = 0.8823	–	726.58
13010 kPa, x2 = 0.1631	670.56	660.51
13010 kPa, x2 = 0.2111	–	662.01
13010 kPa, x2 = 0.7301	–	701.64
13010 kPa, x2 = 0.8823	737.84	–
13020 kPa, x2 = 0.2111	672.46	–
13020 kPa, x2 = 0.4411	685.53	–
13020 kPa, x2 = 0.7301	713.71	–
14000 kPa, x2 = 0.1631	671.69	–
14000 kPa, x2 = 0.3158	678.66	–
14000 kPa, x2 = 0.4411	686.68	–
14000 kPa, x2 = 0.7301	714.83	–
14010 kPa, x2 = 0.1631	–	661.7
14010 kPa, x2 = 0.2111	673.57	663.23
14010 kPa, x2 = 0.3158	–	667.62
14010 kPa, x2 = 0.7301	–	702.82
14010 kPa, x2 = 0.8823	738.9	–
14020 kPa, x2 = 0.4411	–	675.08
14020 kPa, x2 = 0.8823	–	727.76
15000 kPa, x2 = 0.4411	687.73	–
15000 kPa, x2 = 0.8823	739.94	728.85
15010 kPa, x2 = 0.1631	672.77	662.89
15010 kPa, x2 = 0.4411	–	676.25
15010 kPa, x2 = 0.7301	–	704
15020 kPa, x2 = 0.2111	674.7	664.4
15020 kPa, x2 = 0.3158	679.74	668.79
15020 kPa, x2 = 0.7301	715.89	–
16000 kPa, x2 = 0.3158	–	669.98
16000 kPa, x2 = 0.8823	–	729.97
16010 kPa, x2 = 0.1631	673.82	–
16010 kPa, x2 = 0.2111	675.76	665.57
16010 kPa, x2 = 0.3158	680.86	–
16010 kPa, x2 = 0.7301	716.98	705.17
16010 kPa, x2 = 0.8823	740.94	–
16020 kPa, x2 = 0.1631	–	664
16020 kPa, x2 = 0.4411	688.85	677.45
17000 kPa, x2 = 0.1631	674.88	–
17000 kPa, x2 = 0.3158	681.92	–
17000 kPa, x2 = 0.4411	689.88	–
17000 kPa, x2 = 0.7301	–	706.32
17000 kPa, x2 = 0.8823	–	731.02
17010 kPa, x2 = 0.1631	–	665.15
17010 kPa, x2 = 0.3158	–	671.18
17010 kPa, x2 = 0.4411	–	678.56
17010 kPa, x2 = 0.7301	718.02	–
17020 kPa, x2 = 0.2111	676.83	666.77
17020 kPa, x2 = 0.8823	741.94	–
18000 kPa, x2 = 0.8823	–	732.11
18010 kPa, x2 = 0.1631	675.92	–
18010 kPa, x2 = 0.2111	677.86	–
18010 kPa, x2 = 0.3158	–	672.26
18010 kPa, x2 = 0.4411	690.94	679.72
18010 kPa, x2 = 0.7301	719.02	–
18010 kPa, x2 = 0.8823	742.92	–
18020 kPa, x2 = 0.1631	–	666.27
18020 kPa, x2 = 0.2111	–	667.86
18020 kPa, x2 = 0.3158	682.96	–
18020 kPa, x2 = 0.7301	–	707.41
19000 kPa, x2 = 0.1631	676.89	667.34
19000 kPa, x2 = 0.4411	–	680.79
19000 kPa, x2 = 0.8823	–	733.13
19010 kPa, x2 = 0.2111	678.87	668.92
19010 kPa, x2 = 0.3158	683.98	673.36
19010 kPa, x2 = 0.4411	691.96	–
19010 kPa, x2 = 0.7301	720.02	708.47
19010 kPa, x2 = 0.8823	743.88	–
20000 kPa, x2 = 0.7301	721.02	–
20000 kPa, x2 = 0.8823	744.83	–
20010 kPa, x2 = 0.1631	677.88	668.36
20010 kPa, x2 = 0.2111	–	669.97
20010 kPa, x2 = 0.3158	684.96	674.4
20010 kPa, x2 = 0.4411	692.97	–
20020 kPa, x2 = 0.2111	679.82	–
20020 kPa, x2 = 0.4411	–	681.9
20020 kPa, x2 = 0.7301	–	709.58
20020 kPa, x2 = 0.8823	–	734.15
